Data: the NIST ThermoML archive (doi:10.1021/acs.jced.8b00229)
Numbers after ± are expanded uncertainties.

Details: Liquid, Vibrating tube method

FCC(F)(F)F [1,1,1,2-tetrafluoroethane]
Details	mass density [kg/m3]
283.55 K, 40000 kPa	1376.3 ± 2.1
283.55 K, 60000 kPa	1413.1 ± 2.3
283.55 K, 80000 kPa	1443.2 ± 2.5
283.56 K, 20000 kPa	1328.7 ± 2
283.57 K, 5000 kPa	1279.4 ± 2
283.57 K, 10000 kPa	1297.9 ± 2
303.39 K, 1000 kPa	1188.5 ± 2
303.39 K, 5000 kPa	1212.5 ± 2
303.39 K, 10000 kPa	1237 ± 2
303.39 K, 20000 kPa	1275.9 ± 2
303.39 K, 40000 kPa	1332.1 ± 2.1
303.39 K, 80000 kPa	1407.4 ± 2.4
303.4 K, 60000 kPa	1373.9 ± 2.2
322.89 K, 3000 kPa	1120.9 ± 2.1
322.91 K, 5000 kPa	1137.8 ± 2.1
322.91 K, 10000 kPa	1172 ± 2
322.93 K, 20000 kPa	1221.5 ± 2
322.93 K, 40000 kPa	1288.4 ± 2.1
322.93 K, 60000 kPa	1335.8 ± 2.2
322.94 K, 80000 kPa	1372.8 ± 2.4
342.75 K, 3000 kPa	1017.4 ± 2.2
342.75 K, 5000 kPa	1047.5 ± 2.1
342.76 K, 10000 kPa	1098.8 ± 2.1
342.77 K, 20000 kPa	1164.1 ± 2
342.77 K, 40000 kPa	1243.6 ± 2.1
342.78 K, 60000 kPa	1297.3 ± 2.1
342.78 K, 80000 kPa	1338.2 ± 2.3
362.57 K, 5000 kPa	924.9 ± 2.3
362.57 K, 10000 kPa	1015.4 ± 2.1
362.58 K, 20000 kPa	1103.4 ± 2
362.59 K, 40000 kPa	1198.4 ± 2.1
362.59 K, 60000 kPa	1258.8 ± 2.1
362.59 K, 80000 kPa	1303.8 ± 2.3

C=CCCCCC [1-heptene]
Details	mass density [kg/m3]
283.52 K, 15000 kPa	718.3 ± 2
283.52 K, 20000 kPa	722.2 ± 2
283.52 K, 25000 kPa	725.9 ± 2.1
283.52 K, 30000 kPa	729.4 ± 2.1
283.52 K, 35000 kPa	732.9 ± 2.1
283.52 K, 40000 kPa	736.1 ± 2.1
283.52 K, 55000 kPa	745.3 ± 2.1
283.53 K, 100 kPa	705.5 ± 2
283.53 K, 500 kPa	705.9 ± 2
283.53 K, 1000 kPa	706.4 ± 2
283.53 K, 3000 kPa	708.2 ± 2
283.53 K, 5000 kPa	710 ± 2
283.53 K, 10000 kPa	714.3 ± 2
283.53 K, 45000 kPa	739.3 ± 2.1
283.53 K, 50000 kPa	742.4 ± 2.1
283.53 K, 60000 kPa	748.2 ± 2.1
283.53 K, 80000 kPa	759 ± 2.2
283.53 K, 90000 kPa	763.9 ± 2.2
283.54 K, 70000 kPa	753.8 ± 2.2
283.54 K, 100000 kPa	768.7 ± 2.3
293.45 K, 100 kPa	697 ± 2
293.45 K, 500 kPa	697.4 ± 2
293.45 K, 1000 kPa	697.9 ± 2
293.45 K, 5000 kPa	701.8 ± 2
293.45 K, 20000 kPa	714.8 ± 2
293.45 K, 25000 kPa	718.7 ± 2.1
293.45 K, 30000 kPa	722.4 ± 2.1
293.45 K, 35000 kPa	726 ± 2.1
293.45 K, 55000 kPa	739 ± 2.1
293.45 K, 60000 kPa	742 ± 2.1
293.45 K, 70000 kPa	747.8 ± 2.2
293.45 K, 80000 kPa	753.2 ± 2.2
293.45 K, 90000 kPa	758.3 ± 2.2
293.45 K, 100000 kPa	763.1 ± 2.3
293.46 K, 3000 kPa	699.9 ± 2
293.46 K, 10000 kPa	706.4 ± 2
293.46 K, 15000 kPa	710.7 ± 2
293.46 K, 40000 kPa	729.4 ± 2.1
293.46 K, 45000 kPa	732.8 ± 2.1
293.46 K, 50000 kPa	736 ± 2.1
303.37 K, 100 kPa	688.4 ± 2
303.37 K, 500 kPa	688.9 ± 2
303.37 K, 55000 kPa	732.8 ± 2.1
303.37 K, 100000 kPa	757.7 ± 2.3
303.38 K, 1000 kPa	689.5 ± 2
303.38 K, 3000 kPa	691.6 ± 2
303.38 K, 5000 kPa	693.6 ± 2
303.38 K, 10000 kPa	698.5 ± 2
303.38 K, 15000 kPa	703.1 ± 2
303.38 K, 20000 kPa	707.4 ± 2
303.38 K, 25000 kPa	711.5 ± 2.1
303.38 K, 30000 kPa	715.4 ± 2.1
303.38 K, 35000 kPa	719.2 ± 2.1
303.38 K, 40000 kPa	722.8 ± 2.1
303.38 K, 45000 kPa	726.2 ± 2.1
303.38 K, 50000 kPa	729.5 ± 2.1
303.38 K, 60000 kPa	735.9 ± 2.1
303.38 K, 70000 kPa	741.8 ± 2.2
303.38 K, 80000 kPa	747.4 ± 2.2
303.38 K, 90000 kPa	752.6 ± 2.2
313.29 K, 100 kPa	680.6 ± 2
313.3 K, 500 kPa	681.1 ± 2
313.3 K, 5000 kPa	686.2 ± 2
313.3 K, 20000 kPa	700.9 ± 2
313.3 K, 25000 kPa	705.2 ± 2.1
313.3 K, 30000 kPa	709.3 ± 2.1
313.3 K, 35000 kPa	713.3 ± 2.1
313.3 K, 40000 kPa	717 ± 2.1
313.3 K, 45000 kPa	720.6 ± 2.1
313.3 K, 50000 kPa	724 ± 2.1
313.3 K, 55000 kPa	727.4 ± 2.1
313.3 K, 60000 kPa	730.6 ± 2.2
313.3 K, 70000 kPa	736.8 ± 2.2
313.3 K, 80000 kPa	742.6 ± 2.2
313.3 K, 90000 kPa	748 ± 2.2
313.3 K, 100000 kPa	753.1 ± 2.3
313.31 K, 1000 kPa	681.8 ± 2
313.31 K, 3000 kPa	684 ± 2
313.31 K, 10000 kPa	691.3 ± 2
313.31 K, 15000 kPa	696.3 ± 2
323.18 K, 100 kPa	670.5 ± 2
323.18 K, 500 kPa	671 ± 2
323.18 K, 1000 kPa	671.6 ± 2
323.18 K, 3000 kPa	674.1 ± 2
323.18 K, 10000 kPa	682 ± 2
323.18 K, 25000 kPa	696.6 ± 2.1
323.18 K, 30000 kPa	700.9 ± 2.1
323.18 K, 35000 kPa	705 ± 2.1
323.18 K, 40000 kPa	708.9 ± 2.1
323.18 K, 45000 kPa	712.7 ± 2.1
323.18 K, 50000 kPa	716.3 ± 2.1
323.18 K, 55000 kPa	719.7 ± 2.1
323.18 K, 60000 kPa	723.1 ± 2.2
323.18 K, 70000 kPa	729.6 ± 2.2
323.18 K, 80000 kPa	735.5 ± 2.2
323.19 K, 5000 kPa	676.4 ± 2
323.19 K, 15000 kPa	687.1 ± 2
323.19 K, 20000 kPa	692 ± 2
323.19 K, 90000 kPa	741.1 ± 2.3
323.19 K, 100000 kPa	746.4 ± 2.3
333.04 K, 100 kPa	661.5 ± 2
333.04 K, 500 kPa	662 ± 2
333.04 K, 1000 kPa	662.7 ± 2
333.05 K, 3000 kPa	665.3 ± 2
333.05 K, 5000 kPa	667.9 ± 2
333.05 K, 10000 kPa	673.8 ± 2
333.05 K, 15000 kPa	679.3 ± 2
333.05 K, 20000 kPa	684.5 ± 2.1
333.05 K, 25000 kPa	689.3 ± 2.1
333.05 K, 30000 kPa	693.8 ± 2.1
333.05 K, 35000 kPa	698.1 ± 2.1
333.05 K, 40000 kPa	702.2 ± 2.1
333.05 K, 45000 kPa	706.2 ± 2.1
333.05 K, 50000 kPa	709.9 ± 2.1
333.05 K, 55000 kPa	713.5 ± 2.1
333.05 K, 60000 kPa	717 ± 2.2
333.05 K, 70000 kPa	723.7 ± 2.2
333.05 K, 80000 kPa	729.9 ± 2.2
333.05 K, 90000 kPa	735.7 ± 2.3
333.05 K, 100000 kPa	741.1 ± 2.3
342.91 K, 100 kPa	652.7 ± 2
342.91 K, 500 kPa	653.3 ± 2
342.91 K, 1000 kPa	654 ± 2
342.91 K, 3000 kPa	656.9 ± 2
342.91 K, 15000 kPa	671.8 ± 2
342.91 K, 30000 kPa	687.1 ± 2.1
342.91 K, 35000 kPa	691.7 ± 2.1
342.92 K, 5000 kPa	659.6 ± 2
342.92 K, 10000 kPa	666 ± 2
342.92 K, 20000 kPa	677.4 ± 2.1
342.92 K, 25000 kPa	682.4 ± 2.1
342.92 K, 40000 kPa	696 ± 2.1
342.92 K, 45000 kPa	700.1 ± 2.1
342.92 K, 50000 kPa	703.9 ± 2.1
342.92 K, 55000 kPa	707.7 ± 2.2
342.92 K, 60000 kPa	711.3 ± 2.2
342.92 K, 70000 kPa	718.3 ± 2.2
342.92 K, 80000 kPa	724.6 ± 2.2
342.92 K, 90000 kPa	730.6 ± 2.3
342.92 K, 100000 kPa	736.2 ± 2.3
352.8 K, 100 kPa	644.3 ± 2
352.8 K, 500 kPa	644.9 ± 2
352.8 K, 40000 kPa	690 ± 2.1
352.8 K, 45000 kPa	694.3 ± 2.1
352.8 K, 50000 kPa	698.4 ± 2.1
352.8 K, 70000 kPa	713.2 ± 2.2
352.8 K, 80000 kPa	719.7 ± 2.2
352.8 K, 90000 kPa	725.9 ± 2.3
352.8 K, 100000 kPa	731.7 ± 2.3
352.81 K, 1000 kPa	645.7 ± 2
352.81 K, 3000 kPa	648.8 ± 2
352.81 K, 5000 kPa	651.6 ± 2
352.81 K, 10000 kPa	658.4 ± 2
352.81 K, 15000 kPa	664.7 ± 2
352.81 K, 20000 kPa	670.5 ± 2.1
352.81 K, 25000 kPa	675.8 ± 2.1
352.81 K, 30000 kPa	680.9 ± 2.1
352.81 K, 35000 kPa	685.6 ± 2.1
352.81 K, 55000 kPa	702.3 ± 2.2
352.81 K, 60000 kPa	706 ± 2.2
362.68 K, 100 kPa	633.6 ± 2
362.68 K, 500 kPa	634.3 ± 2
362.68 K, 100000 kPa	725.7 ± 2.3
362.69 K, 1000 kPa	635 ± 2
362.69 K, 3000 kPa	638.5 ± 2
362.69 K, 5000 kPa	641.7 ± 2
362.69 K, 20000 kPa	661.9 ± 2.1
362.69 K, 30000 kPa	672.8 ± 2.1
362.69 K, 35000 kPa	677.8 ± 2.1
362.69 K, 40000 kPa	682.5 ± 2.1
362.69 K, 45000 kPa	687 ± 2.1
362.69 K, 50000 kPa	691.2 ± 2.1
362.69 K, 55000 kPa	695.2 ± 2.2
362.69 K, 60000 kPa	699.1 ± 2.2
362.69 K, 70000 kPa	706.6 ± 2.2
362.69 K, 80000 kPa	713.4 ± 2.3
362.69 K, 90000 kPa	719.7 ± 2.3
362.7 K, 10000 kPa	649.1 ± 2
362.7 K, 15000 kPa	655.8 ± 2
362.7 K, 25000 kPa	667.6 ± 2.1
